Laboratory results from ChEMBL document CHEMBL1671624, “Efficacy of quinoxaline-2-carboxylate 1,4-di-N-oxide derivatives in experimental tuberculosis” (Antimicrob Agents Chemother, 2008).
Converted amounts (≈) assume the structure as drawn.

Assays:
Format in all cases: functional
Conditions in all cases: variant bovis BCG
[1] = tested on: Mycobacterium tuberculosis; test: Antibacterial activity against wild-type Mycobacterium bovis BCG by microplate Alamar Blue assay
[2] = tested on: Mycobacterium tuberculosis; test: Antibacterial activity against Mycobacterium bovis BCG harboring fgd gene by microplate Alamar Blue assay
[3] = tested on: Mycobacterium tuberculosis; test: Antibacterial activity against Mycobacterium bovis BCG harboring moaA gene by microplate Alamar Blue assay
[4] = tested on: Mycobacterium tuberculosis; test: Antibacterial activity against Mycobacterium bovis BCG harboring fbiC gene by microplate Alamar Blue assay
[5] = tested on: Mycobacterium tuberculosis; test: Antibacterial activity against Mycobacterium bovis BCG harboring moaD gene by microplate Alamar Blue assay
[6] = tested on: Mycobacterium tuberculosis; test: Antibacterial activity against Mycobacterium bovis BCG harboring pil8 gene by microplate Alamar Blue assay

Row | Compound | MIC [1] | MIC [2] | MIC [3] | MIC [4] | MIC [5] | MIC [6]
1 | CCOC(=O)c1c(C)[n+]([O-])c2ccc(Cl)cc2[n+]1[O-] | 0.5 µM (≈ 0.141 µg/mL) | 0.5 µM (≈ 0.141 µg/mL) | 0.38 µM (≈ 0.107 µg/mL) | 0.71 µM (≈ 0.201 µg/mL) | 0.55 µM (≈ 0.155 µg/mL) | 0.72 µM (≈ 0.204 µg/mL)
2 | O=[N+]([O-])c1cn2c(n1)OC[C@@H](OCc1ccc(OC(F)(F)F)cc1)C2 [PRETOMANID] | 0.12 µM (≈ 0.0431 µg/mL) | > 128 µM | > 128 µM | > 128 µM | > 128 µM | > 128 µM
3 | O=C(Nc1ccc([N+](=O)[O-])cc1Cl)c1cc(Cl)ccc1O [NICLOSAMIDE] | 3.13 µM (≈ 1.02 µg/mL) | 1.61 µM (≈ 0.527 µg/mL) | 1.86 µM (≈ 0.608 µg/mL) | 1.57 µM (≈ 0.514 µg/mL) | 1.9 µM (≈ 0.622 µg/mL) | 1.87 µM (≈ 0.612 µg/mL)
